Patent US5047397A, “Linear analogs of atrial natriuretic peptides” (California Biotechnology Inc., priority 1988, dated 1991)
Entries after “also recorded” stand apart in the source; their conditions may differ. Where a SMILES comes first, the peptide text is derived from it. Bridges are numbered along the chain shown (N, C = ends). Where no end group is shown, it is not given here.

Assays:
[1] = tested on: pentobarbital-anesthetized dogs; assay: Diuresis and natriuresis in anesthetized dogs; assay type: in vivo, dog
Experimental: In these examples, cannulae were placed in the left and right ureters and femoral vein of anesthetized dogs and urine was collected from the ureters. Analog peptides were administered via the femoral vein. Prior to infusing analog peptides, saline was infused for 30 minutes and urine was then collected for three ten-minute collection periods. Urine volume was determined gravimetrically and urine sodium was determined photometrically.
Following these three baseline collection periods, the selected analog peptides were infused for 60 minutes and urinary flow was measured for an additional 60 minutes following infusion. During infusion (60 minutes) and recovery (60 minutes), ten-minute collection periods were obtained. Control animals which received only saline were studied in parallel.
Data were examined by comparing urine flow rates for dogs infused with peptides AP101 (3 mcg/kg/min), AP306 (3 mcg/kg/min), AP324 (3 mcg/kg/min),or AP314 (1 mcg/kg/min) against control animals infused with saline.

[2] = target: T1, specific ANP receptor sites on BASM or BAE cells (Bos taurus, UniProt P10730); assay: Competitive displacement receptor binding of (125I)-rANP(126-150) on cultured cells; design: species or system bovine
T1 construct: specific receptor sites on BASM or BAE cells; endogenous in cells; host or cells: cultured BASM and BAE cells
T1 sequence (P10730 42-537): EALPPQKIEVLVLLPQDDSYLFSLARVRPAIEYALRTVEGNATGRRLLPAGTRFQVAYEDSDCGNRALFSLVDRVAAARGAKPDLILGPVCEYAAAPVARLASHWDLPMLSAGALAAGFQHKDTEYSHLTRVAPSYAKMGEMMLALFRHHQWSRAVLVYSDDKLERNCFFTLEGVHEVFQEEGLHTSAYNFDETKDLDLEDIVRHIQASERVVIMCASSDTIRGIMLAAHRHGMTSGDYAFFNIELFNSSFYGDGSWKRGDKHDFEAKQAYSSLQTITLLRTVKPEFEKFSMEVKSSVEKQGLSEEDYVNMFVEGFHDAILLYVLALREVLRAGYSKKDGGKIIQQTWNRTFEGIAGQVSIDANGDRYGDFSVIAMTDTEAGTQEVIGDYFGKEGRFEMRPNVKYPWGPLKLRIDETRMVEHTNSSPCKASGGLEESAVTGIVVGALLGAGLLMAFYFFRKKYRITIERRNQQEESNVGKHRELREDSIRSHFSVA
Source text: Analogous "competitive displacement" receptor binding assays are considered commonplace in the art for examining specific ligand-receptor interactions.
Assuming these ANP analogs act at one or more ANP receptor sites, then increased receptor affinity should reflect increased biological potency.

anesthetized rats [3] = assay: Diuresis in anesthetized rats; assay type: in vivo, rat; details: infused at 5 mcg/min via femoral vein; versus baseline; FIG. 3
Experimental: In one set of examples, cannulae were placed in the left and right ureters and femoral vein of anesthetized rats and urine was collected from the ureters. Analog peptides were administered via the femoral vein. Prior to infusing the analog peptides, saline was infused for 30 minutes, urine was collected for 6 five-minute baseline periods and urine volume was determined gravimetrically. Following these baseline collection periods, various analog peptides were infused for 30 or 60 minutes and urine volume was measured in five-minute periods during infusion and for 60 minutes following infusion (at which time rats were returned to saline). Data was examined by averaging urine flow rates for six five-minute baseline control periods immediately preceding infusion, and comparing values during and after administration of peptides with the "baseline" control values. Responses to peptides are thus evaluated and plotted as the percent of baseline control responses. Specific examples are shown in FIGS. 3A-H. The error bars at the beginning of the graphs represent baseline values +standard deviations. Responses to peptides that are substantially above baseline ±SD can thus be interpreted as being statistically significant increases.

anesthetized rats [4] = assay: Blood pressure responses in anesthetized rats; assay type: in vivo, rat; details: infusion 733 p mol/kg/min

With “AFGGRIDRIGA-NH2 [AP101, A--F--G--G--R--I--D--R--I--G--A--NH2]” the “Peak Urine Flow Rate V” value ([1]; 3 mcg/kg/min infused 60 min, *P<0.05, control 0.61) was 1.77 mL/min, the “urine flow rate and urinary sodium excretion (diuresis, natriuresis), in words” value ([1]; 3 mcg/kg/minute infusion) was “cause diuresis; also recorded: significantly increased” and the “Ki(app)” value ([2]; concentration of unlabeled peptide displacing 50% of maximal binding of 0.5 nM (125I)-rANP(126-150), BASM or BAE cells) was 2.63 nM. For the same compound, the “prevention of (125I)-rANP(126-150) binding to BASM cell-associated receptors (FIG. 2)” value ([2]; increasing concentrations of unlabeled peptide, BASM cells) was “effectively prevent” and the “urine flow rate (urine volume), diuretic response” value (anesthetized rats [3]) was “induce diuresis; also recorded: significantly increased”.
`CC[C@H](C)[C@@H]1NC(=O)[C@H](CCCNC(=N)N)NC(=O)[C@H](CC(=O)O)NC(=O)[C@H]([C@@H](C)CC)NC(=O)[C@H](CCCNC(=N)N)NC(=O)CNC(=O)CNC(=O)[C@H](Cc2ccccc2)NC(=O)[C@@H](NC(=O)[C@H](CO)NC(=O)[C@H](CO)NC(=O)[C@@H](N)CCCNC(=N)N)CSSC[C@@H](C(=O)N[C@@H](CC(N)=O)C(=O)N[C@@H](CO)C(=O)N[C@@H](Cc2ccccc2)C(=O)N[C@@H](CCCNC(=N)N)C(=O)N[C@@H](Cc2ccc(O)cc2)C(=O)O)NC(=O)[C@H](C)NC(=O)CNC1=O` [AP20, R--S--S--C--F--G--G--R--I--D--R--I--G--A--C--N--S--F--R--Y] (H-RSSCFGGRIDRIGACNSFRY-OH; disulfide 4-15) was tested, and the Ki ([2]; Table 2A, unit not given, in nM) was 7.50, the “urine flow rate (urine volume), diuretic response” value (anesthetized rats [3]) was “significantly increased” and the “Blood Pressure” value (anesthetized rats [4]) was -34 ± 3.
